Results reported in patent publication US20060069132A1, “Azolecarboxamide herbicides” (priority 2004, published 2006).

Key:
large crabgrass = test: Test B pre-/postemergence herbicide test; assay type: in vivo, Digitaria sanguinalis
Summary of the method: (§1)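 Visual rating, 0 (no effect) to 100 (complete control), versus untreated controls after 13–15 d in greenhouse. Pre- and postemergence applications (postemergence plants 2–18 cm, 1–4 leaves); flooded paddy arm at 2-leaf stage. Compounds in non-phytotoxic solvent plus surfactant.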

barnyardgrass [1] = test: Test B flooded paddy test; assay type: in vivo, Echinochloa crus-galli; conditions: 1000 g ai/ha, scale 0 to 100 (0 no effect, 100 complete control)
Summary of the method: (§2)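 Treated at 2-leaf (paddy) or 1–4-leaf, 2–18 cm (postemergence); greenhouse 13–15 d; visual score vs control, 0 none to 100 complete control; dash = not tested.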

rice [2] = test: Test C flooded paddy test; assay type: in vivo, Oryza sativa; conditions: for Plant response rating, Rice: 500 g ai/ha, visual rating after 12 to 14 days
Summary of the method: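 Plants were grown to the 1- to 4-leaf stage (2–18 cm) and then treated postemergence, or grown to the 2-leaf stage for the flooded paddy test. They were held in a greenhouse for 12 to 14 days and then scored by eye against controls, where 0 is no effect and 100 is complete control.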

rice [3] = test: Test B flooded paddy test; assay type: in vivo, Oryza sativa; conditions: 1000 g ai/ha, scale 0 to 100 (0 no effect, 100 complete control)
Summary of the method: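 Read-out: visual comparison with controls, scored 0 to 100, where 100 means complete control and 0 no effect. Formulated chemicals were applied postemergence to plants 2–18 cm tall (1- to 4-leaf), or to flooded-paddy plants at the 2-leaf stage, then held 13 to 15 days under glass.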

lambsquarters = test: Test B pre-/postemergence herbicide test; assay type: in vivo, Chenopodium album
Summary of the method: as §1

Surinam grass = test: Test B pre-/postemergence herbicide test; assay type: in vivo, Urochloa decumbens
Summary of the method: as §1

velvetleaf = test: Test B pre-/postemergence herbicide test; assay type: in vivo, Abutilon theophrasti
Summary of the method: as §1

wild oat = test: Test B postemergence herbicide test; assay type: in vivo, Avena fatua
Summary of the method: (§3)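 Visual ratings, 0 (no effect) to 100 (complete control), made versus controls after 13–15 d greenhouse. Paddy plants treated at 2-leaf stage; postemergence plants at 1- to 4-leaf stage, 2–18 cm tall.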

wheat = test: Test B postemergence herbicide test; assay type: in vivo, Triticum aestivum; parameters: key to Wheat plant response rating: 0 = no effect, 100 = complete control
Summary of the method: as §3

ducksalad [4] = test: Test C flooded paddy test; assay type: in vivo, Heteranthera limosa; conditions: for Plant response rating, Ducksalad: 500 g ai/ha, visual rating after 12 to 14 days
ducksalad [5] = test: Test B flooded paddy test; assay type: in vivo, Heteranthera limosa; conditions: 1000 g ai/ha, scale 0 to 100 (0 no effect, 100 complete control)
Summary of the method: as §2

barnyardgrass [6] = test: Test C flooded paddy test; assay type: in vivo, Echinochloa crus-galli; conditions: for Plant response rating, Barnyardgrass: 500 g ai/ha, visual rating after 12 to 14 days
Summary of the method: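 Injury scored visually against controls on a 0 (no effect) to 100 (complete control) scale, 12 to 14 days after treatment in greenhouse. Flooded paddy plants treated at 2-leaf stage; postemergence plants at 1- to 4-leaf stage, 2 to 18 cm tall.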

[7] = tested on: small flower umbrella sedge; test: Test B flooded paddy test; assay type: in vivo, Cyperus difformis; conditions: 1000 g ai/ha, scale 0 to 100 (0 no effect, 100 complete control)
Summary of the method: as §2

[8] = tested on: smallflower umbrella sedge; test: Test C flooded paddy test; assay type: in vivo, Cyperus difformis; conditions: for Plant response rating, Sedge, Umbrella: 500 g ai/ha, visual rating after 12 to 14 days
blackgrass = test: Test B postemergence herbicide test; assay type: in vivo, Alopecurus myosuroides
Summary of the method: as §2

rice [9] = test: Test B pre-/postemergence herbicide test; assay type: in vivo, Oryza sativa; conditions: 0 = no effect, 100 = complete control, preemergence; for Rice plant response rating (0 to 100 scale): 125 g ai/ha; for Plant response rating, Rice: 500 g ai/ha, visual rating
Summary of the method: as §1

barnyardgrass [10] = test: Test B pre-/postemergence herbicide test; assay type: in vivo, Echinochloa crus-galli
Summary of the method: (§4)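 Herbicidal effect was judged by eye on a 0–100 scale after plants stood 13 to 15 days in the greenhouse following pre- or postemergence treatment with surfactant-containing formulations.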

cocklebur = test: Test B pre-/postemergence herbicide test; assay type: in vivo, Xanthium strumarium
Summary of the method: as §4

pigweed = test: Test B pre-/postemergence herbicide test; assay type: in vivo, Amaranthus retroflexus
Summary of the method: as §1

morningglory = test: Test B pre-/postemergence herbicide test; assay type: in vivo, Ipomoea coccinea
Summary of the method: as §4

corn = test: Test B pre-/postemergence herbicide test; assay type: in vivo, Zea mays
Summary of the method: as §1

giant foxtail = test: Test B pre-/postemergence herbicide test; assay type: in vivo, Setaria faberi
Summary of the method: as §1

[11] = 125 g ai/ha; 0 = no effect, 100 = complete control; preemergence
[12] = 500 g ai/ha; visual rating, 0 = no effect, 100 = complete control; preemergence
[13] = postemergence, 125 g ai/ha; visual rating, scale 0 (no effect) to 100 (complete control)
[14] = postemergence, 500 g ai/ha; scale 0 to 100, 0 is no effect, 100 is complete control
[15] = 125 g ai/ha, scale 0 to 100 (0 no effect, 100 complete control)
[16] = 250 g ai/ha, scale of 0 to 100, 0 is no effect, 100 is complete control
[17] = scale 0 to 100 (0 no effect, 100 complete control)
[18] = 62 g ai/ha, scale 0 to 100 (0 no effect, 100 complete control)
[19] = 125 g ai/ha; visual rating, scale 0 (no effect) to 100 (complete control); postemergence

CCn1nc(C(C)(C)C)c(F)c1C(=O)Nc1cccc(C(=O)N(C)C)n1 [Compound 274]
Crabgrass, Large plant response rating (0 to 100 scale) (large crabgrass; [11]): 10 | Plant response rating, Crabgrass, Large (large crabgrass; [12]): 100 | Crabgrass, Large plant response rating (large crabgrass; [13]): 0 | Crabgrass, Large plant response rating (large crabgrass; [14]): 0 | Barnyardgrass plant response rating (barnyardgrass [1]): 70 | Rice plant response rating (rice [2]; 62 g ai/ha, scale 0 to 100): 0 | Rice plant response rating (rice [2]; [15]): 0 | Rice plant response rating (rice [2]; [16]): 15 | Plant response rating, Rice (rice [2]; [17]): 45 | Rice plant response rating (rice [3]): 60 | Lambsquarters plant response rating (0 to 100 scale) (lambsquarters; [11]): 70 | Plant response rating, Lambsquarters (lambsquarters; [12]): 100 | Lambsquarters plant response rating (lambsquarters; [13]): 40 | Lambsquarters plant response rating (lambsquarters; [14]): 70 | Surinam Grass plant response rating (0 to 100 scale) (Surinam grass; [11]): 50 | Plant response rating, Surinam Grass (Surinam grass; [12]): 80 | Surinam Grass plant response rating (Surinam grass; [13]): 20 | Surinam Grass plant response rating (Surinam grass; [14]): 30 | Velvetleaf plant response rating (0 to 100 scale) (velvetleaf; [11]): 20 | Plant response rating, Velvetleaf (velvetleaf; [12]): 70 | Velvetleaf plant response rating (velvetleaf; [13]): 10 | Velvetleaf plant response rating (velvetleaf; [14]): 10 | Oat, Wild plant response rating (wild oat; [13]): 20 | Oat, Wild plant response rating (wild oat; [14]): 40 | Wheat plant response rating (wheat; [13]): 20 | Wheat plant response rating (wheat; [14]): 20 | Ducksalad plant response rating (ducksalad [4]; 62 g ai/ha, scale 0 to 100): 0 | Ducksalad plant response rating (ducksalad [4]; [15]): 0 | Ducksalad plant response rating (ducksalad [4]; [16]): 0 | Plant response rating, Ducksalad (ducksalad [4]; [17]): 20 | Ducksalad plant response rating (ducksalad [5]): 70 | Barnyardgrass plant response rating (barnyardgrass [6]; [18]): 0 | Barnyardgrass plant response rating (barnyardgrass [6]; [15]): 10 | Barnyardgrass plant response rating (barnyardgrass [6]; [16]): 30 | Plant response rating, Barnyardgrass (barnyardgrass [6]; [17]): 60 | Sedge, Umbrella plant response rating [7]: 80 | Sedge, Umbrella plant response rating ([8]; 62 g ai/ha, scale 0 to 100): 0 | Sedge, Umbrella plant response rating [8, 15]: 50 | Sedge, Umbrella plant response rating [8, 16]: 70 | Plant response rating, Sedge, Umbrella [8, 17]: 75 | Blackgrass plant response rating (blackgrass; [13]): 30 | Blackgrass plant response rating (blackgrass; [14]): 30 | Rice plant response rating (0 to 100 scale) (rice [9]): 30 | Plant response rating, Rice (rice [9]): 80 | Barnyardgrass plant response rating (0 to 100 scale) (barnyardgrass [10]; [11]): 60 | Plant response rating, Barnyardgrass (barnyardgrass [10]; [12]): 100 | Barnyardgrass plant response rating (barnyardgrass [10]; [13]): 0 | Barnyardgrass plant response rating (barnyardgrass [10]; [14]): 10 | Cocklebur plant response rating (0 to 100 scale) (cocklebur; [11]): 0 | Plant response rating, Cocklebur (cocklebur; [12]): 0 | Cocklebur plant response rating (cocklebur; [13]): 0 | Cocklebur plant response rating (cocklebur; [14]): 10 | Pigweed plant response rating (0 to 100 scale) (pigweed; [11]): 30 | Plant response rating, Pigweed (pigweed; [12]): 100 | Pigweed plant response rating (pigweed; [13]): 40 | Pigweed plant response rating (pigweed; [14]): 60 | Morningglory plant response rating (0 to 100 scale) (morningglory; [11]): 0 | Plant response rating, Morningglory (morningglory; [12]): 10 | Morningglory plant response rating (morningglory; [13]): 0 | Morningglory plant response rating (morningglory; [14]): 60 | Corn plant response rating (0 to 100 scale) (corn; [11]): 0 | Plant response rating, Corn (corn; [12]): 80 | Corn plant response rating (corn; [13]): 0 | Corn plant response rating (corn; [14]): 20 | Foxtail, Giant plant response rating (0 to 100 scale) (giant foxtail; [11]): 10 | Plant response rating, Foxtail, Giant (giant foxtail; [12]): 90 | Foxtail, Giant plant response rating (giant foxtail; [13]): 20 | Foxtail, Giant plant response rating (giant foxtail; [14]): 50

CCn1nc(C2(C)CC2)cc1C(=O)Nc1cccc(C(=O)N(C)C)c1 [Compound 303]
Crabgrass, Large plant response rating (0 to 100 scale) (large crabgrass; [11]): 100 | Crabgrass, Large plant response rating (large crabgrass; [19]): 10 | Plant response rating, Crabgrass, Large (large crabgrass; [12]): 100 | Crabgrass, Large plant response rating (large crabgrass; [14]): 60 | Barnyardgrass plant response rating (barnyardgrass [1]): 90 | Rice plant response rating (rice [2]; 62 g ai/ha, scale 0 to 100): 30 | Rice plant response rating (rice [2]; [15]): 65 | Rice plant response rating (rice [2]; [16]): 80 | Plant response rating, Rice (rice [2]; [17]): 85 | Rice plant response rating (rice [3]): 90 | Lambsquarters plant response rating (0 to 100 scale) (lambsquarters; [11]): 100 | Lambsquarters plant response rating (lambsquarters; [19]): 80 | Plant response rating, Lambsquarters (lambsquarters; [12]): 100 | Lambsquarters plant response rating (lambsquarters; [14]): 90 | Surinam Grass plant response rating (0 to 100 scale) (Surinam grass; [11]): 50 | Surinam Grass plant response rating (Surinam grass; [19]): 10 | Plant response rating, Surinam Grass (Surinam grass; [12]): 100 | Surinam Grass plant response rating (Surinam grass; [14]): 20 | Velvetleaf plant response rating (velvetleaf; [19]): 30 | Plant response rating, Velvetleaf (velvetleaf; [12]): 100 | Velvetleaf plant response rating (velvetleaf; [14]): 70 | Oat, Wild plant response rating (wild oat; [19]): 30 | Oat, Wild plant response rating (wild oat; [14]): 40 | Wheat plant response rating (wheat; [19]): 10 | Wheat plant response rating (wheat; [14]): 20 | Ducksalad plant response rating (ducksalad [4]; 62 g ai/ha, scale 0 to 100): 55 | Ducksalad plant response rating (ducksalad [4]; [15]): 75 | Ducksalad plant response rating (ducksalad [4]; [16]): 80 | Plant response rating, Ducksalad (ducksalad [4]; [17]): 85 | Ducksalad plant response rating (ducksalad [5]): 90 | Barnyardgrass plant response rating (barnyardgrass [6]; [18]): 30 | Barnyardgrass plant response rating (barnyardgrass [6]; [15]): 45 | Barnyardgrass plant response rating (barnyardgrass [6]; [16]): 80 | Plant response rating, Barnyardgrass (barnyardgrass [6]; [17]): 95 | Sedge, Umbrella plant response rating [7]: 90 | Sedge, Umbrella plant response rating ([8]; 62 g ai/ha, scale 0 to 100): 75 | Sedge, Umbrella plant response rating [8, 15]: 85 | Sedge, Umbrella plant response rating [8, 16]: 85 | Plant response rating, Sedge, Umbrella [8, 17]: 90 | Blackgrass plant response rating (blackgrass; [19]): 20 | Blackgrass plant response rating (blackgrass; [14]): 40 | Rice plant response rating (0 to 100 scale) (rice [9]): 70 | Plant response rating, Rice (rice [9]): 80 | Barnyardgrass plant response rating (0 to 100 scale) (barnyardgrass [10]; [11]): 70 | Barnyardgrass plant response rating (barnyardgrass [10]; [19]): 40 | Plant response rating, Barnyardgrass (barnyardgrass [10]; [12]): 90 | Barnyardgrass plant response rating (barnyardgrass [10]; [14]): 40 | Cocklebur plant response rating (0 to 100 scale) (cocklebur; [11]): 0 | Cocklebur plant response rating (cocklebur; [19]): 10 | Plant response rating, Cocklebur (cocklebur; [12]): 20 | Cocklebur plant response rating (cocklebur; [14]): 30 | Pigweed plant response rating (0 to 100 scale) (pigweed; [11]): 100 | Pigweed plant response rating (pigweed; [19]): 70 | Plant response rating, Pigweed (pigweed; [12]): 100 | Pigweed plant response rating (pigweed; [14]): 90 | Morningglory plant response rating (0 to 100 scale) (morningglory; [11]): 10 | Morningglory plant response rating (morningglory; [19]): 80 | Plant response rating, Morningglory (morningglory; [12]): 50 | Morningglory plant response rating (morningglory; [14]): 90 | Corn plant response rating (corn; [19]): 70 | Plant response rating, Corn (corn; [12]): 70 | Corn plant response rating (corn; [14]): 70 | Foxtail, Giant plant response rating (0 to 100 scale) (giant foxtail; [11]): 50 | Foxtail, Giant plant response rating (giant foxtail; [19]): 50 | Plant response rating, Foxtail, Giant (giant foxtail; [12]): 100 | Foxtail, Giant plant response rating (giant foxtail; [14]): 50
